Results from ChEMBL document CHEMBL4017490, “Design, Synthesis, and Pharmacological Evaluation of Novel Multisubstituted Pyridin-3-amine Derivatives as Multitargeted Protein Kinase Inhibitors for the Treatment of Non-Small Cell Lung Cancer” (J Med Chem, 2017).

Key:
[1] = molecular target: Fibroblast growth factor receptor 1 (Homo sapiens, UniProt P11362); assay: Inhibition of recombinant human FGFR1 using poly (Glu,Tyr) 4:1 as substrate after 60 mins by ELISA
[2] = molecular target: Fibroblast growth factor receptor 2 (Homo sapiens, UniProt P21802)
Fibroblast growth factor receptor 2, sequence (P21802 whole entry): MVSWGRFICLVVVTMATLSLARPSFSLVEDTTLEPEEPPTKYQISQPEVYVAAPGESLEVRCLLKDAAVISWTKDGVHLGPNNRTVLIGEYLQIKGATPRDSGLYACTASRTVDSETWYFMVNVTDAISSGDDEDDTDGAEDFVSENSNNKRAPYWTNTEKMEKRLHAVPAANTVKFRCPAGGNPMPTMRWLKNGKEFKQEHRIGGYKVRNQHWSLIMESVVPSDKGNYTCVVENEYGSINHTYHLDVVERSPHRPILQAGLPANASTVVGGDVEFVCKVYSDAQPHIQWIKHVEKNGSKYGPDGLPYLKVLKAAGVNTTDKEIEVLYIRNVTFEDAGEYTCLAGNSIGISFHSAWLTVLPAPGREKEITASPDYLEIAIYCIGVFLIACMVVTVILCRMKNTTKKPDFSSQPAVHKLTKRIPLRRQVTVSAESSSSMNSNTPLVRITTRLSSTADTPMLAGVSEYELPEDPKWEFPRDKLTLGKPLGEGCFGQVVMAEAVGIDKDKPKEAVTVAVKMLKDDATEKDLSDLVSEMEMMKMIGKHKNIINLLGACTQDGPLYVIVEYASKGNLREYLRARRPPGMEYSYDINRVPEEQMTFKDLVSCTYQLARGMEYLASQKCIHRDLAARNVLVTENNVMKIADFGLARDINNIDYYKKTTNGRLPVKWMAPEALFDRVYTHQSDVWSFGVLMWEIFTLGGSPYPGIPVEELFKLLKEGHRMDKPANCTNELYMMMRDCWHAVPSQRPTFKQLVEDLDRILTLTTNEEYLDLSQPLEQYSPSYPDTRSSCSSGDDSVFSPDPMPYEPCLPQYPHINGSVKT
Description: Inhibition of recombinant human FGFR2 using poly (Glu,Tyr) 4:1 as substrate after 60 mins by ELISA

[3] = molecular target: Fibroblast growth factor receptor 3 (Homo sapiens, UniProt P22607); assay: Inhibition of recombinant human FGFR3 using poly (Glu,Tyr) 4:1 as substrate after 60 mins by ELISA
Fibroblast growth factor receptor 3, sequence (P22607 whole entry): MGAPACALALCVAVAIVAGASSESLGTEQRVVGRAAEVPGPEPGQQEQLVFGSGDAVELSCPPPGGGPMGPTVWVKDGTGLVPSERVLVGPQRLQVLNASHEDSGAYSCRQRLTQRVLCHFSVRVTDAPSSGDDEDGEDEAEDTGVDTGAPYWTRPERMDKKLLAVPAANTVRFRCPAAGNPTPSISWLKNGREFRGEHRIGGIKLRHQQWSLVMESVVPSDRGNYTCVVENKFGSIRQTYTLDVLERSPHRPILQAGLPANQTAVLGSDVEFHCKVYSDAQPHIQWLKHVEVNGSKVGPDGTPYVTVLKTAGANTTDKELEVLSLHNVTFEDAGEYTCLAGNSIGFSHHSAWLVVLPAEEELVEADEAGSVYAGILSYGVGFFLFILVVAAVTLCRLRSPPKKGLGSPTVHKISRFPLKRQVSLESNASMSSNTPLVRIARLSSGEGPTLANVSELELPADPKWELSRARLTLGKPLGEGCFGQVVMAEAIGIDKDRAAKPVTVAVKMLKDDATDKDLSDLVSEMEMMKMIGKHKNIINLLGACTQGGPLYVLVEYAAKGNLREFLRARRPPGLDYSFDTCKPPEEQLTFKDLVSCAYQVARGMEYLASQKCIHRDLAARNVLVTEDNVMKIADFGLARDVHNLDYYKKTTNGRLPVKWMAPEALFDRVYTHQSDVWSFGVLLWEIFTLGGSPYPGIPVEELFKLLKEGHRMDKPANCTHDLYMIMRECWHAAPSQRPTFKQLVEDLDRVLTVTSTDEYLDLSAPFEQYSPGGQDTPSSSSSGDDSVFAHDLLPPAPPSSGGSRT

[4] = Inhibition of FGFR3 mutant in human UM-UC-14 cells assessed as inhibition of cell proliferation after 72 hrs by cell counting kit-8 assay; assay type: cell-based; conditions: UMUC14, 72 h

Fibroblast growth factor receptor 1, sequence (P11362 whole entry): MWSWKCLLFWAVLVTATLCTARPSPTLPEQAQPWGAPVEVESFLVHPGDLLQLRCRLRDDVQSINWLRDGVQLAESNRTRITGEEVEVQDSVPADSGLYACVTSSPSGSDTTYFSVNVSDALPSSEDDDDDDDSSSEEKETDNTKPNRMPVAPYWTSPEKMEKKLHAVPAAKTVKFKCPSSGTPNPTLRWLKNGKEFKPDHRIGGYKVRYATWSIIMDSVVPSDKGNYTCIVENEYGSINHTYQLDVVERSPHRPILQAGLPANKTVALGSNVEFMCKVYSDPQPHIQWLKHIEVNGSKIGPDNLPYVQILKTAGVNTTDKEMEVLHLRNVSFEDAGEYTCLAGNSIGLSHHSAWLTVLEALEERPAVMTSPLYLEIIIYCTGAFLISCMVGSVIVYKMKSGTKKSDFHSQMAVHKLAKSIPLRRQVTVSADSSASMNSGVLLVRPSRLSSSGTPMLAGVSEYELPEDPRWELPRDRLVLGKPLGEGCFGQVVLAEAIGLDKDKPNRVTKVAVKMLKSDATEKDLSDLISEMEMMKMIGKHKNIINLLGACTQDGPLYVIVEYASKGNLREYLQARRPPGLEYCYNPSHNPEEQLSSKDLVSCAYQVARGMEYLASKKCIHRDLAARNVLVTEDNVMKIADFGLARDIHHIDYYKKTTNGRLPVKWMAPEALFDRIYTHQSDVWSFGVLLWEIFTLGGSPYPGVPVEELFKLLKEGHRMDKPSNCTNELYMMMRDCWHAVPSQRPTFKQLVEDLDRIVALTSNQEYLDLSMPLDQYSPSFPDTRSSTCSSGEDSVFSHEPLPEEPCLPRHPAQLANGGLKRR

Row | Structure (SMILES) | IC50 [1] [nM] | IC50 [2] [nM] | IC50 [3] [nM] | IC50 [4] [nM]
1 | Cc1n[nH]c2ccc(-c3cc(N[C@@H](CO)c4ccccc4)cnc3-c3cccs3)cc12 | > 1000 | 100 to 1000 | > 1000 | 
2 | CC(=O)Nc1ccccc1-c1ncc(N[C@@H](CO)c2ccccc2)cc1-c1ccc2[nH]nc(C)c2c1 | 418 | 250 | 3650 | 
3 | Cc1n[nH]c2ccc(-c3cc(N[C@@H](C)c4ccccc4)cnc3-c3cc(Cl)ccc3O)cc12 | > 1000 | > 1000 | > 1000 | 
4 | Cc1n[nH]c2ccc(-c3cc(NCCO)cnc3-c3cc(F)ccc3O)cc12 | > 1000 | > 1000 | > 1000 | 
5 | Cc1n[nH]c2ccc(-c3cc(N[C@@H](CO)c4ccccc4)cnc3-c3cccc(F)c3O)cc12 | 27.9 | 2.5 | 35.3 | 
6 | Cc1n[nH]c2ccc(-c3cc(N[C@@H](CO)c4ccccc4)cnc3-c3ccccc3C(F)(F)F)cc12 | > 1000 | > 1000 | > 1000 | 
7 | COc1ccccc1-c1ncc(N[C@@H](CO)c2ccccc2)cc1-c1ccc2[nH]nc(C)c2c1 | > 1000 | 100 to 1000 | > 1000 | 
8 | Cc1n[nH]c2ccc(-c3cc(NCCCO)cnc3-c3cc(F)ccc3O)cc12 | > 1000 | > 1000 | > 1000 | 
9 | Cc1n[nH]c2ccc(-c3cc(NC[C@H](O)c4ccccc4)cnc3-c3cc(Cl)ccc3O)cc12 | 168 | 71.9 | 401 | 
10 | Cc1n[nH]c2ccc(-c3cc(N[C@@H](CO)c4ccccc4)cnc3-c3ccoc3)cc12 | 3800 | > 1000 | > 1000 | 
11 | Cc1n[nH]c2ccc(-c3cc(N[C@@H](CO)c4ccccc4)cnc3-c3ccsc3)cc12 | 327 | 56.9 | 970 | 
12 | Cc1n[nH]c2ccc(-c3cc(N[C@H](CO)c4ccccc4)cnc3-c3cc(Cl)ccc3O)cc12 | > 1000 | > 1000 | > 1000 | 
13 | COc1cc(CCc2cc(NC(=O)c3ccc(N4C[C@@H](C)N[C@@H](C)C4)cc3)n[nH]2)cc(OC)c1 [FEXAGRATINIB] |  |  |  | 27.1
14 | Cc1n[nH]c2ccc(-c3cc(N[C@@H](CO)c4ccccc4)cnc3-c3cccc4cc[nH]c34)cc12 | 456 | 56.4 | 561 | 
15 | Cc1n[nH]c2ccc(-c3cc(N[C@@H](CO)c4ccccc4)cnc3-c3cc(C(C)C)ccc3O)cc12 | > 1000 | > 1000 | > 1000 | 
16 | Cc1n[nH]c2ccc(-c3cc(N[C@@H](CO)c4ccccc4)cnc3-c3ccco3)cc12 | > 1000 | 100 to 1000 | > 1000 | 

Row | Structure (SMILES) | IC50 [1] [nM] | IC50 [2] [nM] | IC50 [3] [nM] | IC50 [4] [nM]
17 | Cc1ccc(O)c(-c2ncc(N[C@@H](CO)c3ccccc3)cc2-c2ccc3[nH]nc(C)c3c2)c1 | 32.3 | 16.1 | 22.8 | 
18 | Cc1n[nH]c2ccc(-c3cc(N[C@@H](CO)c4ccccc4)cnc3-c3cccc4cccnc34)cc12 | > 1000 | > 1000 | > 1000 | 
19 | Cc1n[nH]c2ccc(-c3cc(N[C@@H](CO)c4ccccc4)cnc3-c3ccccc3CO)cc12 | 167 | 50.5 | 251 | 
20 | OC[C@H](Nc1cnc(-c2cc(Cl)ccc2O)c(-c2ccc3[nH]ccc3c2)c1)c1ccccc1 | > 1000 | > 1000 | > 1000 | 
21 | O=C1Cc2cc(-c3cc(N[C@@H](CO)c4ccccc4)cnc3-c3cc(Cl)ccc3O)ccc2N1 | 91.5 | 154 | 591 | 
22 | Cc1n[nH]c2ccc(-c3cc(N[C@@H](CO)c4ccccc4)cnc3-c3ccccc3C(N)=O)cc12 | 48.8 | 72.9 | 388 | 
23 | Cc1n[nH]c2ccc(-c3cc(N[C@@H](CO)c4ccccc4)cnc3-c3ccccc3F)cc12 | 437 | 44.6 | 431 | 
24 | Cc1n[nH]c2ccc(-c3cc(N[C@@H](CO)c4ccccc4)cnc3-c3ccccc3O)cc12 | 14.9 | 3 | 8 | 
25 | Cc1n[nH]c2ccc(-c3cc(N[C@@H](CO)c4ccccc4)cnc3-c3ccccc3)cc12 | 128 | 26.3 | 280 | 
26 | Cc1n[nH]c2ccc(-c3cc(N[C@@H](CO)c4ccccc4)cnc3-c3cccc(O)c3)cc12 | 66.5 | 21.4 | 434 | 
27 | Cc1n[nH]c2ccc(-c3cc(N[C@@H](CO)c4ccccc4)cnc3-c3cc(F)cc(F)c3O)cc12 | 63.5 | 3.4 | 58.4 | 
28 | Cc1n[nH]c2ccc(-c3cc(N[C@@H](CO)c4ccccc4)cnc3-c3cccnc3)cc12 | > 1000 | > 1000 | > 1000 | 
29 | Cc1n[nH]c2ccc(-c3cc(N[C@@H](CO)c4ccccc4)cnc3-c3cc(F)c(F)cc3O)cc12 | 10.6 | 2.8 | 27.6 | 
30 | CC(=O)Nc1ccc(-c2cc(N[C@@H](CO)c3ccccc3)cnc2-c2cc(Cl)ccc2O)cc1 | > 1000 | > 1000 | > 1000 | 
31 | Cc1n[nH]c2ncc(-c3cc(N[C@@H](CO)c4ccccc4)cnc3-c3cc(Cl)ccc3O)cc12 | 24.9 | 6.6 | 93.9 | 
